From patent publication US20240270759A1, “Preparation of SHP2 phosphatase inhibitors and its applications” (Ya Therapeutics Inc, priority 2021, published 2024) come the findings set out here.

What is called IC50 is the concentration at which inhibition is half-maximal.

In this experiment the target is T1, SHP2 full-length protein (Homo sapiens, UniProt Q06124).
T1 construct: purchased BPS Bioscience #79330
T1 sequence (Q06124 1-593): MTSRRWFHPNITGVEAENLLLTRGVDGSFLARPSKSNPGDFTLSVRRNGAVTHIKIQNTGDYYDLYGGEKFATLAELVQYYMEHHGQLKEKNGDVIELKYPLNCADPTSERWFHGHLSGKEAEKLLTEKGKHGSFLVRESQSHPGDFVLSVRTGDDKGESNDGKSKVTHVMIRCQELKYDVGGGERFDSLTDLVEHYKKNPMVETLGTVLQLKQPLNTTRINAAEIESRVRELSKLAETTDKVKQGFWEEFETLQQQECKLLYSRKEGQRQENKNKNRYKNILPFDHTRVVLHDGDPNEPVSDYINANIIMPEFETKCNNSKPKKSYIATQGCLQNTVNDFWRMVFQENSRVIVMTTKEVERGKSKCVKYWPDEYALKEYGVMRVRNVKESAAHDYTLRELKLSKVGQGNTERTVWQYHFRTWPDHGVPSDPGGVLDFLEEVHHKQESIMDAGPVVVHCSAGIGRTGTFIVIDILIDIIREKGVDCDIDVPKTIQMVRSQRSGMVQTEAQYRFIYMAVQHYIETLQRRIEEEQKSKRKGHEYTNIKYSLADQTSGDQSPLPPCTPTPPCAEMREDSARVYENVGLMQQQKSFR
Put plainly: SHP2 allosteric inhibition experiment (Homogeneous Full Length SHP-2 Assay Kit). It is filed as biochemical. Conditions: full-length SHP2 0.06 nM with SHP-2 activating peptide; ten-point, 1 μM to 0.05 nM; read-out: IC50 Values of Compounds Inhibiting SHP2. An excerpt: The following further describes and explains the present invention in combination with test examples, but these examples are not meant to limit the scope of the present invention. SHP2 allosteric inhibition experiment
The purpose of this test is to measure the ability of the compounds to inhibit the allosteric activity of the SHP2 full-length protein. Experimental equipment: a centrifuge (5810R) is purchased from Eppendorf Company; pipettes are purchased from Eppendorf Company and Rainin Company, and microplate readers are purchased from BioTek Company of the United States, SynergyH1 multimode microplate reader.
Experimental method: Homogeneous Full Length SHP-2 Assay Kit (BPS Bioscience, #79330) is used to detect SHP2 activity in vitro. First, add 18 μL of Master Mix to 96-well low-adsorption microplate (NUNC, #267342), that is, 0.5 μL of SHP-2 activating Peptide and 5 mM DTT are included in the reaction buffer with a final concentration of 1×. After centrifugation, add 5 μL of the compound to be tested in DMSO (final DMSO content is 1% (V/V) in each well: dissolve the compound to be tested in DMSO to 1 mM, conduct triple dilution with a total of 10 concentration levels ranging from 1 μM to 0.05 nM in the reaction buffer. After diluting SHP2 in 1× reaction buffer to a final concentration of 0.06 nM, add it to the reaction microwell plate, 2 μL per well. Set a full activity control ([…]) and a full inhibition control (without SHP-2) on the reaction plate, and incubate the reaction mixture at room temperature for 60 minutes after centrifugation.
After incubation, add 25 μL of Substrate solution to each well, containing Substrate with a final concentration of 10 μM and DTT with a final concentration of 5 mM, and after centrifugation, continue to incubate at room temperature for 30 minutes. After the reaction, set the excitation wavelength at 340 nm, the emission wavelength at 455 nm, and the gain value to 75 on the Synergy H1 microplate reader (Biotek) for reading.
Take the full activity control and full inhibition control as the values of Max and Min, and calculate the percentage inhibition rate of the wells treated with the compound based on the positive control wells (DMSO control wells) and negative control wells (no kinase added) on the reaction plate, (inhibition rate percentage=100−[(test compound−Min average value)/(Max average value−Min average value)]×100%. IC50 values of test compounds are calculated by fitting percentage of inhibition and ten-point concentration data to a 4-parameter nonlinear logic formula using GraphPad prism.
As for `CC(C)n1ccc(-c2cccc(Sc3ncc4nc(N5CCC6(CC5)CO[C@@H](C)[C@H]6N)ccc4n3)c2Cl)n1` [Compound 71, (3S,4S)-8-(2-((2-chloro-3-(1-isopropyl-1H-pyrazole-3-yl)phenyl)mercapto)pyridinyl[3,2-d]pyrimidine-6-yl)-3-methyl-2-oxa-8-azaspiro[4.5]decane-4-amine], the IC50 is at most 10 nM.

As to `CCn1ccc(-c2cccc(Sc3ncc4nc(N5CCC6(CC5)CO[C@@H](C)[C@H]6N)cnc4n3)c2Cl)n1` [Compound 66, (3S,4S)-8-(2-((2-chloro-3-(1-ethyl-1H-pyrazole-3-yl)phenyl)mercapto)pteridine-6-yl)-3-methylyl-2-oxa-8-azaspiro[4.5]decane-4-amine], the IC50 is at most 10 nM.

As to `C[C@@H]1OCC2(CCN(c3ncc(Sc4cccc(NC(=O)c5ncccn5)c4Cl)cn3)CC2)[C@@H]1N` [Compound 123, N-(3-((2-((3S,4S)-4-amino-3-methyl-2-oxa-8-azaspiro[4.5]decane-8-yl I)pyrimidine-5-yl)mercapto)-2-chlorophenyl)pyrimidine-2-carboxamide], the IC50 was at most 10 nM.

With `Nc1nccc(-n2c(=O)[nH]c3nc(N4CCC5(CC4)Cc4cccnc4[C@H]5N)cnc3c2=O)c1Cl` [Compound 22, (S)-3-(2-amino-3-chloropyridine-4-yl)-7-(7-amino-5,7-dihydrospiro[cyclopenta[b]pyridine-6,4′-piperidine]-1′-yl)pteridine-2,4(1H,3H)-dione], the IC50 is at most 10 nM.

For `C[C@@H]1OCC2(CCN(c3ncc(Sc4cccc(NC(=O)c5cnccn5)c4Cl)cn3)CC2)[C@@H]1N` [Compound 126, N-(3-((2-((3S,4S)-4-amino-3-methyl-2-oxa-8-azaspiro[4.5]decane-8-yl)pyrimidine-5-yl)mercapto)-2-chlorophenyl)pyrazine-2-carboxamide], the IC50 was at most 10 nM.

Regarding `C[C@@H]1OCC2(CCN(c3cnc4nc(Sc5cccc(Oc6ccn(C)n6)c5Cl)ncc4n3)CC2)[C@@H]1N` [Compound 94], the IC50 was at most 10 nM.

As to `C[C@@H]1OCC2(CCN(c3cnc(Sc4cccc(-c5cnccn5)c4Cl)nn3)CC2)[C@@H]1N` [Compound 134, (3S,4S)-8-(3-((2-chloro-3-(pyrazine-2-yl)phenyl)mercapto)-1,2,4-triazine-6-yl)-3-methyl-2-oxa-8-azaspiro[4.5]decane-4-amine], the IC50 is at most 10 nM.

`C[C@@H]1OCC2(CCN(c3ccc4nc(Sc5cccc(Oc6ccn(C)n6)c5Cl)ncc4n3)CC2)[C@@H]1N` [Compound 95]: the IC50 was at most 10 nM.

For the molecule `Nc1nccc(-n2c(=O)[nH]c3nc(N4CCC5(CC4)Cc4ncccc4[C@H]5N)cnc3c2=O)c1Cl` [Compound 19, (S)-3-(2-amino-3-chloropyridine-4-yl)-7-(5-amino-5,7-dihydrospiro[cyclopenta[b]pyridine-6,4′-piperidine]-1′-yl)pteridine-2,4(1H,3H)-dione], the IC50 is at most 10 nM.

In the case of `C[C@@H]1OCC2(CCN(c3ncc4nc(Sc5cccc(NC(=O)c6c(O)nc7n(c6=O)CCCC7)c5Cl)cnc4n3)CC2)[C@@H]1N` [Compound 88, N-(3-((2-((3S,4S)-4-amino-3-methyl-2-oxa-8-azaspiro[4.5]decane-8-yl)pteridine-6-yl)mercapto)-2-chlorophenyl)-2-hydroxy-4-oxo-6,7,8,9-tetrahydro-4H-pyridinyl[1,2-a]p yrimidine-3-carboxamide], the IC50 was at most 10 nM.

With `C[C@@H]1OCC2(CCN(c3cnc(Sc4cccc(Nc5cnccn5)c4Cl)nc3)CC2)[C@@H]1N` [Compound 109, (3S,4S)-8-(2-((2-chloro-3-(pyrazine-2-amino)phenyl)mercapto)pyrimidine-5-yl)-3-me thyl-2-oxa-8-azaspiro[4.5]decane-4-amine], the IC50 is 10 to 100 nM.

Take `C[C@@H]1OCC2(CCN(c3cnc(Sc4cccc(-c5cnccn5)c4Cl)nc3)CC2)[C@@H]1N` [Compound 104, (3S,4S)-8-(2-((2-chloro-3-(pyrazine-2-yl)phenyl)mercapto)pyrimidine-5-yl)-3-methyl-2-oxa-8-azaspiro[4.5]decane-4-amine]: the IC50 was at most 10 nM.

With `C[C@@H]1OCC2(CCN(c3cnc(Sc4cccc(NC(=O)c5c(O)nc6n(c5=O)CCCC6)c4Cl)nc3)CC2)[C@@H]1N` [Compound 102, N-(3-((5-((3S,4S)-4-amino-3-methyl-2-oxa-8-azaspiro[4.5]decane-8-yl)pyrimidine-2-yl)mercapto)-2-chlorobenzene)-2-hydroxyl-4-oxa-6,7,8,9-tetrahydro-4H-pyridinyl[1,2-a]pyrimidine-3-carboxamide], the IC50 was at most 10 nM.

On to `C[C@@H]1OCC2(CCN(c3ncc4nc(Sc5cccc(NC(=O)c6c(O)nc7n(c6=O)CCCC7)c5Cl)ccc4n3)CC2)[C@@H]1N` [Compound 96, N-(3-((2-((3S,4S)-4-amino-3-methyl-2-oxa-8-azaspiro[4.5]decane-8-yl)pyridinyl[3,2-d]pyrimidine-6-yl)mercapto)-2-chlorophenyl)-2-hydroxy-4-oxo-6,7,8,9-tetrahydro-4H-pyridinyl[1,2-a]pyrimidine-3-carboxamide], for which the IC50 was at most 10 nM.

Consider `C[C@@H]1OCC2(CCN(c3cnc(Sc4cccc(Nc5ncccn5)c4Cl)nc3)CC2)[C@@H]1N` [Compound 108, (3S,4S)-8-(2-((2-chloro-3-(pyrimidine-2-amino)phenyl)mercapto)pyrimidine-5-yl)-3-methyl-2-oxa-8-azaspiro[4.5]decane-4-amine], for which the IC50 was in the range of 10 to 100 nM.

For the molecule “N-(3-((5-((3S,4S)-4-amino-3-methyl-2-oxa-8-azaspiro[4.5]decane-8-yl)pyridazine-3-yl) mercapto)-2-chlorophenyl)-2-hydroxy-4-oxa-6,7,8,9-tetrahydro-4H-pyridinyl[1,2-a]pyrimidine-3-carboxamide [Compound 136]”, the IC50 is at most 10 nM.

As for `C[C@@H]1OCC2(CCN(c3nnc(Sc4cccc(NC(=O)c5c(O)nc6n(c5=O)CCCC6)c4Cl)nn3)CC2)[C@@H]1N` [Compound 137, N-(3-((5-((3S,4S)-4-amino-3-methyl-2-oxa-8-azaspiro[4.5]decane-8-yl)s-tetrazine-3-yl)mercapto)-2-chlorophenyl)-2-hydroxy-4-oxa-6,7,8,9-tetrahydro-4H-pyridinyl[1,2-a]pyrimidine-3-carboxamide], the IC50 was at most 10 nM.

On to `CCn1ccc(-c2cccc(Sc3ncc(N4CCC5(CC4)CO[C@@H](C)[C@H]5N)cn3)c2Cl)n1` [Compound 100, (3S,4S)-8-(2-((2-chloro-3-(1-ethyl-1H-pyrazole-3-yl)phenyl)mercapto)pyrimidine-5-yl)-3-methyl-2-oxa-8-azaspiro[4.5]decane-4-amine], for which the IC50 was at most 10 nM.

In the case of `NC1c2cnccc2CC12CCN(c1ccc3c(=O)n(-c4cccc(Cl)c4Cl)c(=O)[nH]c3c1)CC2` (stereo in doubt) [Compound 6, (S)-7-(7-Amino-5,7-dihydrospiro [cyclopenta[c]pyridine-6,4′-piperidine]-1′-yl)-3-(2,3-dichlorophenyl)quinazoline-2,4(1H,3H)-dione], the IC50 is at most 10 nM.

Regarding `C[C@@H]1OCC2(CCN(c3ncc4nc(Sc5cccc(NC(=O)c6ccncn6)c5Cl)cnc4n3)CC2)[C@@H]1N` [Compound 82, N-(3-((2-((3S,4S)-4-amino-3-methyl-2-oxa-8-azaspiro[4.5]decane-8-yl)pteridine-6-yl)mercapto)-2-chlorophenyl)pyrimidine-4-carboxamide], the IC50 was at most 10 nM.
